Results from patent publication US4590277A, “Acridinecarboxamide compounds” (Development Finance Corporation of New Zealand, priority 1982, dated 1986).

Legend:
P388 tumour cells = test: P388 in vivo, life span extension; set-up: species or system mice (F1 hybrid, DBA-2 male x C57 B1 female); key to P388 in vivo Active: Y: implies a significant value of drug activity at the stated dose; N: implies no or not statistically significant activity; conditions: for P388 in vivo ILS (percentage increase in life span): at optimal dose, days 1, 5 and 9, vs controls (average survival 11 days), greater than 20% statistically significant; for P388 in vivo Active: at the stated (optimal) dose
Protocol: P388 in vivo--Tumour P388 cells were obtained as frozen stocks from Mason Research Inc., U.S.A. and passaged intraperitoneally according to standard methods (Cancer Chemother. Rep. 3, Part 3, page 9, 1972) in DBA-2 mice of either sex. Groups of six Fl hybrid mice (DBA-2 male x C57 B1 female, g weight 20±1 g) were injected intraperitoneally with 10^6 cells on day 0.
O.D.--optimal drug dose, in milligrams per kilogram, administered as a solution in 0.1 ml of 30% v/v ethyl alcohol in water on days 1, 5 and 9 after tumour inoculation. The drug is administered as a soluble acid addition salt.
ILS--percentage increase in life span of treated animals over that of groups of control animals injected with tumour alone. The average survival of control mice was 11 days. Values of ILS greater than 20% are considered statistically significant.
Y. implies a significant value of drug activity at the stated dose.
N. implies no or not statistically significant activity.

[1] = tested on: murine L1210 leukaemic cells; test: L1210 in vitro growth inhibition; format: cell-based; conditions: Mus musculus, drug added to cultures over 70 hours, 50% reduction of counted leukaemia cells, below 1000 nM considered significant, read-out: L1210 in vitro ID50
Protocol: L1210 in vitro--The culture methods used are described in detail elsewhere (B. C. Baguley and R. Nash, Europ. J. Cancer, 17, 671-679 (1981)). Acceptable reproducibility of data depends critically upon the maintenance of optimal culture conditions. L1210 cells were initially obtained from Dr I. Wodinsky, Arthur D. Little Inc., Boston, U.S.A., under the auspices of the National Cancer Institute.
Values below 1000 nM are considered significant.

[2] = Reversed phase partition chromatography (lipophilic-hydrophilic balance); format: physicochemical; conditions: linearly related to partition coefficients in 1-octanol/water, read-out: Rm
Excerpt: Rm=a measure of the compound's lipophilic-hydrophilic balance from reversed phase partition chromatography. Rm is linearly related to partition coefficients obtained in the 1-octanol/water system.

[3] = cited from earlier work
Escherichia coli = test: Antibacterial activity
Aerobacter aerogenes = test: Antibacterial activity
Sarcina lutea = test: Antibacterial activity
[4] = tested on: Micrococcus lysodeikticus; test: Antibacterial activity
Bacillus subtilis = test: Antibacterial activity
Neisseria catarrhalis = test: Antibacterial activity
Xanthomonas phaseoli = test: Antibacterial activity
Staphylococcus aureus = test: Antibacterial activity
Streptococcus faecalis = test: Antibacterial activity
Alcaligenes viscolatis = test: Antibacterial activity

| SMILES | IC50 [1] | chromatographic logP [2] | P388 in vivo ILS (percentage increase in life span) (P388 tumour cells) | P388 in vivo Active (P388 tumour cells) | other results |
| --- | --- | --- | --- | --- | --- |
| Cc1ccc2nc3c(C(=O)NCCN(C)C)cccc3c(N)c2c1 [Compound 22] | 605 nM |  | 0% | N |  |
| COc1ccc2nc3c(C(=O)NCCN(C)C)cccc3c(N)c2c1 [Compound 23] | 518 nM |  | 4% | N |  |
| CNc1c2ccccc2nc2c(C(=O)NCCN(C)C)cccc12 [Compound 3] | 15 nM | -1.11 | 53% | Y |  |
| CN(C)CCCNC(=O)c1cccc2c(N)c3ccccc3nc12 [Compound 5] | 157 nM | -0.93 | 0% | N |  |
| CN(C)CCNC(=O)c1cc([N+](=O)[O-])cc2c(N)c3ccccc3nc12 [Compound 9] | 319 nM |  | 25% | Y |  |
| CCN(CC)CCCC(C)Nc1c2ccc(Cl)cc2nc2ccc(OC)cc12 (centres unmarked) [mepacrine] |  |  |  |  | Local clinical cytostatic effects [3]: Local clinical cytostatic effects |
| CN(C)CCNC(=O)c1cccc2cc3ccccc3nc12 [Compound 1] | 105 nM | -0.2 | 91% | Y |  |
| CN(C)CCNC(=O)c1cccc2c(N)c3cc(Cl)ccc3nc12 [Compound 24] | 722 nM |  | 8% | N |  |
| COc1ccc2c(N)c3cccc(C(=O)NCCN(C)C)c3nc2c1 [Compound 19] | 151 nM |  | 17% | N |  |
| NCCNC(=O)c1cccc2c(N)c3ccccc3nc12 [Compound 8] | 414 nM | -1.18 | 71% | Y |  |
| CN(C)CCNC(=O)c1cccc2c(N)c3ccccc3nc12 [Compound 4] |  | -1.11 | 98% | Y | Antibacterial activity (Escherichia coli): active; Antibacterial activity (Aerobacter aerogenes): active; Antibacterial activity (Sarcina lutea): active; Antibacterial activity [4]: active; Antibacterial activity (Bacillus subtilis): active; Antibacterial activity (Neisseria catarrhalis): active; Antibacterial activity (Xanthomonas phaseoli): active; Antibacterial activity (Staphylococcus aureus): active; Antibacterial activity (Streptococcus faecalis): active; Antibacterial activity (Alcaligenes viscolatis): active |
| CN(C)CCNC(=O)c1cc(N)cc2c(N)c3ccccc3nc12 [Compound 10] | 162 nM |  | 28% | Y |  |

Now from value to compound, other results behind:

| IC50 [1] | chromatographic logP [2] | SMILES | P388 in vivo ILS (percentage increase in life span) (P388 tumour cells) | P388 in vivo Active (P388 tumour cells) | other results |
| --- | --- | --- | --- | --- | --- |
| 104 nM | -1.29 | CN(C)CCNC(=O)c1cccc2c(N)c3cc([N+](=O)[O-])ccc3nc12.Cl.Cl [Compound 20, N-(2-dimethylaminoethyl)-9-amino-7-nitroacridine-4-carboxamide dihydrochloride] | 34% | Y |  |
| 4.3 nM | -1.06 | COc1cccc2c(N)c3cccc(C(=O)NCCN(C)C)c3nc12 [Compound 14] | 81% | Y |  |
| 48 nM | -1.64 | CN(C)CCNC(=O)c1cccc2c(N)c3cc(N)ccc3nc12 [Compound 21] | 80% | Y |  |
| 0.33 nM | -1.02 | Cc1cccc2c(N)c3cccc(C(=O)NCCN(C)C)c3nc12 [Compound 13] | 107% | Y |  |
| 2.9 nM |  | CN(C)CCNC(=O)c1cccc2c(N)c3cccc(Cl)c3nc12 [Compound 15] | 81% | Y |  |
| 55 nM | -0.82 | Cc1ccc2c(N)c3cccc(C(=O)NCCN(C)C)c3nc2c1 [Compound 18] | 20% | N |  |
| 77 nM | -1.06 | Nc1c2ccccc2nc2c(C(=O)NCCNCCO)cccc12 [Compound 6] | 80% | Y |  |
| 18 nM |  | CN(C)CCNC(=O)c1cccc2c(N)c3cccc(N)c3nc12 [Compound 12] | 58% | Y |  |
| 5.5 nM | -0.67 | CCN(CC)CCNC(=O)c1cccc2c(N)c3ccccc3nc12 [Compound 7] | 70% | Y |  |
| 0.05 nM |  | CN(C)CCNC(=O)c1cccc2c(N)c3ccc([N+](=O)[O-])cc3nc12 [Compound 16] | 23% | Y |  |
| 35 nM |  | CN(C)CCNC(=O)c1cccc2c(N)c3ccc(N)cc3nc12 [Compound 17] | 58% | Y |  |
| 1.3 nM |  | CN(C)CCNC(=O)c1cccc2c(N)c3cccc([N+](=O)[O-])c3nc12 [Compound 11] | 39% | Y |  |
| 66 nM | -0.3 | Cc1c2ccccc2nc2c(C(=O)NCCN(C)C)cccc12 [Compound 2, N-(2-dimethylaminoethyl)-9-methylacridine-4-carboxamide] | 14% | N |  |
